By IC50 is commonly meant the point on the concentration scale where inhibition reaches its midpoint. As usually defined, the IC90 is the concentration needed for an effect of 90%. The low end stands for an effect from little substance, the high end for a need for much substance.

The assay deals with Mycobacterium tuberculosis H37Rv growth inhibition, no glycerol. Nature of the assay: Mycobacterium tuberculosis H37Rv growth inhibition, no glycerol, confirmatory dose response (AID 449764).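 For all read-outs here: growth read after 7 days of incubation.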 To be noted: for IC90: measured here: IC90 growth inhibition.

As to `CCC(C)N1CCC2(CC1)N=c1c(c3c4c5c(C)c(O)c3c(O)c1=NC(=O)C(C)=CC=C[C@H](C)[C@H](O)[C@@H](C)[C@@H](O)[C@@H](C)[C@H](OC(C)=O)[C@H](C)[C@@H](OC)C=CO[C@@](C)(O5)C4=O)N2` (stereo partly specified), the half-maximal inhibitory concentration (IC50) is below 0.2 µM and the IC90 is below 0.2 µM.
`CCCC(=O)OCCNc1cc(SCCC(=O)OC)c2nonc2c1[N+](=O)[O-]`: the 50% inhibitory concentration (IC50) was 5.85 µM and the concentration for an effect of 90% (IC90) worked out at 6.66 µM.
Take `CCN(CC)c1nc(NN)nc(Nc2ccc(C)c(Cl)c2)n1`: the IC50 was 5.84 µM and the concentration for an effect of 90% (IC90) is 6.79 µM.
In the case of `CCN(CC)CCN(C(=O)c1ccc(S(=O)(=O)N2CCCC2)cc1)c1nc2cc(C)cc(C)c2s1`, the half-inhibitory concentration (IC50) is 11.7 µM and the 90% effect concentration (IC90) amounted to 13.5 µM.
Take `Cc1cc(OCc2cc(C(=O)N(C)CCc3cnn(C)c3)no2)cc(C)c1Cl`: the 50% inhibitory concentration (IC50) was 34.5 µM and the 90% effect concentration (IC90) was 56.2 µM.
In turn, `COc1ccccc1NC(=O)Nc1nc(CC(=O)N2CCN(c3ccccc3F)CC2)cs1` came in with a 90% effect concentration (IC90) above 100 µM.
As for `O=[N+]([O-])c1ccc(N2CCCCC2)s1`, the concentration for half-maximal inhibition (IC50) was 13.7 µM and the 90% effect concentration (IC90) is 18.5 µM.
For `Cc1cccc(/C=C2/S/C(=N/N=C3\CC4CCC3(C)C4(C)C)NC2=O)c1` (stereo unspecified) the same measures were 25.6 µM and above 100 µM.
In the same order, the values of `CC(=O)c1cccc(NC(=S)NC2CCCCCCC2)c1` are 27.3 µM and above 100 µM.
As for `CCC(C)NC(=O)c1c(N)n(/N=C/c2ccccn2)c2nc3ccccc3nc12` (stereo unspecified), the IC50 was 13.7 µM and the IC90 was determined as 22.4 µM.
Turning to `CCCCCn1c(=O)c2ccccc2n2c(CCl)nnc12`, the 50% inhibitory concentration (IC50) was 1.36 µM and the concentration for an effect of 90% (IC90) is 6.07 µM.
For `CCCCC(CC)CN=C(N)NC(N)=NCCCCCCN=C(N)NC(N)=NCC(CC)CCCC` (stereo unspecified) the same measures were 5.37 µM and 5.97 µM.
On to `CC(C)(C)c1ccc(Cn2nnc3c(=O)[nH]c(C4CCCN(C(=O)Cc5cccs5)C4)nc32)cc1` (stereo unspecified), for which the IC50 was 36 µM and the IC90 was 46.6 µM.
`CC(C)OC(=O)CCCCCN1C(=O)CSC1=S`: the IC50 is 11.5 µM and the IC90 amounted to 19.2 µM.
Turning to `CCOc1ccc(-c2[nH]ncc2-c2ccc(Cl)cc2)c(O)c1`, the concentration for half-maximal inhibition (IC50) was 44.8 µM and the IC90 was determined as 72.3 µM.
Consider `Cc1ccc(/C=N/NC(=S)NC(C)C)o1`, for which the half-inhibitory concentration (IC50) is 42.4 µM and the concentration for an effect of 90% (IC90) was 46.7 µM.
Regarding `CCN(CC)c1ccc(N)cc1`, the IC50 is 8.96 µM and the IC90 amounted to 11.2 µM.
Consider `COc1ccc(C2CC(=O)c3cnc(Nc4cc(C)cc(C)c4)nc3C2)cc1` (stereo unspecified), for which the IC50 is 20.5 µM and the IC90 was found to be 45.2 µM.
Turning to `CN(C)C1(CNC(=O)Nc2ccc(Cl)c(Cl)c2)CCCCC1`, the concentration for half-maximal inhibition (IC50) was 11.8 µM and the IC90 is 13.1 µM.
Turning to `Cc1cc(NC(=O)c2sccc2C)n(-c2nc3ccccc3[nH]2)n1`, the IC50 is 10.2 µM and the IC90 was above 100 µM.
Take `O=C(C1=C[C@@H](c2csc3ccccc23)C[C@@H](OCCCCO)O1)N1CCN(Cc2ccc3c(c2)OCO3)CC1`: the 50% inhibitory concentration (IC50) is 33.9 µM and the IC90 was found to be 53.6 µM.
Regarding `CC(C)(O)[C@H]1O[C@H]2CC[C@@]3(C)[C@@](O)(CC[C@H]4Cc5c([nH]c6ccccc56)[C@@]43C)C2=CC1=O`, the concentration for half-maximal inhibition (IC50) was 48.7 µM and the IC90 is above 100 µM.
As to `Cc1nonc1NC(=O)CSc1ccc(-c2ccccc2)nn1`, the IC50 was 41.2 µM and the concentration for an effect of 90% (IC90) was 58.9 µM.
With `Cc1ccc(NC(=O)CCl)cc1S(=O)(=O)N1CCCCCC1`, the concentration for half-maximal inhibition (IC50) is 10.1 µM and the concentration for an effect of 90% (IC90) turned out to be 14.8 µM.
Consider `COC(=O)c1c(NC(=O)CCl)sc(C(=O)N2CCOCC2)c1C`, for which the IC50 was 10 µM and the concentration for an effect of 90% (IC90) came to 23.1 µM.
Regarding `CC(C)Oc1ccc(C(=O)N/N=C/c2ccc(-c3ccc(S(=O)(=O)Nc4ncccn4)cc3)o2)cc1`, the half-inhibitory concentration (IC50) was 55.8 µM and the IC90 came to 89.7 µM.
Turning to `Cc1cc(NC2CCCCC2)nc(-c2ccccc2O)n1`, the concentration for half-maximal inhibition (IC50) is 35.9 µM and the 90% effect concentration (IC90) is 50.2 µM.
For `COc1ccccc1C1c2ccc3ccccc3c2Oc2ncn(CCN(C)C)c(=N)c21` (stereo unspecified) the same measures were 25.2 µM and 28.9 µM.
Regarding `Cc1ccc(-n2nc3c(N4CCC(C(=O)NCc5ccccc5C)CC4)nnc(C)c3c2C)cc1`, the half-inhibitory concentration (IC50) is 71.8 µM and the concentration for an effect of 90% (IC90) is above 100 µM.
Turning to `CCOC(=O)c1c(NC(=O)CSc2nc3ccc(OC)cc3[nH]2)sc2c1CC(C)(C)NC2(C)C`, the IC50 is 39.7 µM and the IC90 stood at 53.7 µM.
In the same order, the values of `O=C(Nc1ccc2nsnc2c1)NC1CCCCC1` are 44.3 µM and above 100 µM.
For `COc1ccc2nc(N=NC3=C(O)CC(C)(C)CC3=O)sc2c1` the same measures were 13.5 µM and 17.2 µM.
For `CCc1ccc(-c2cc(C)no2)cc1S(=O)(=O)NCCCN1CCN(c2ccccc2)CC1` the same measures were 39 µM and 47.2 µM.
For `COc1ccc(C(=O)OCCNC(=O)c2c(Cl)nc3ccccn23)cc1`, the IC50 is 4.19 µM and the IC90 is 10.6 µM.
For `CC(/C=N/NC(=O)c1cc(-c2ccc3ccccc3c2)n[nH]1)=C\c1ccco1`, the half-maximal inhibitory concentration (IC50) was 43.8 µM and the IC90 stood at 66.8 µM.
Take `Oc1ccccc1Nc1nc(NCc2ccccc2)c2ccccc2n1`: the IC50 is 19.1 µM and the IC90 turned out to be 24.1 µM.
For the compound `O=C(CCCCCNc1nc(=S)[nH]c2ccccc12)N1CCN(c2ccccn2)CC1`, the half-inhibitory concentration (IC50) is 90.2 µM and the IC90 is above 100 µM.
Turning to `COC(=O)CC(=O)N1CCN(c2ccc(Cl)c(Cl)c2)CC1`, the IC50 was 44.4 µM and the 90% effect concentration (IC90) stood at 74.8 µM.
As to `C=C(CCC(=O)c1ccccc1)C(=O)c1ccccc1`, the IC50 was 18 µM and the concentration for an effect of 90% (IC90) was 25.1 µM.
In the same order, the values of `COc1ccc(N=c2ssnc2Cl)cc1` are 90.6 µM and above 100 µM.
On to `O=C(c1ccc(Br)cc1)C(CN1CCOCC1)c1ccccc1` (stereo unspecified), for which the IC50 was 12 µM and the 90% effect concentration (IC90) is 13.8 µM.
For `COC(=O)c1cc(-c2cccc(OC)c2)on1`, the IC50 was 10.5 µM and the IC90 is above 100 µM.
With `O=[N+]([O-])c1cc(-c2ccc(/C=N\n3cnnc3)o2)cc([N+](=O)[O-])c1`, the half-inhibitory concentration (IC50) was 45.5 µM and the 90% effect concentration (IC90) worked out at 49.9 µM.
As for `CC(C)CC[n+]1ccccc1/C=C/c1ccc(N(C)C)cc1`, the IC50 is 10.2 µM and the IC90 was determined as 15.4 µM.
For `O=C1CCc2ccc(OCCCCN3CCN(c4cccc(Cl)c4Cl)CC3)cc2N1` the same measures were 33.3 µM and above 100 µM.
For the compound `COc1ccc(COC(=O)CCNC(=O)c2ccc(Cl)cc2)cc1`, the IC50 is 71.1 µM and the concentration for an effect of 90% (IC90) is above 100 µM.
On to `Cc1nc(NC(=O)c2ccccc2)sc1C1(C)CC(c2ccc(OC(F)(F)F)cc2)=NO1` (stereo unspecified), for which the IC50 is 29.7 µM and the 90% effect concentration (IC90) turned out to be 60.4 µM.
Turning to `COc1ccc(Cc2nnc(SCC(=O)N(c3ccccc3)C(C)C)n(N)c2=O)cc1`, the IC50 is 68 µM and the IC90 amounted to 97.5 µM.
As to `COc1ccc(-c2cc(C3CCN(Cc4cccc(C(F)(F)F)c4)CC3)[nH]n2)cc1`, the concentration for half-maximal inhibition (IC50) is 13.3 µM and the concentration for an effect of 90% (IC90) came out at 24.9 µM.
As to `Clc1ccc(C(Cn2ccnc2)OCc2csc3c(Cl)cccc23)c(Cl)c1` (stereo unspecified), the IC50 is 17.7 µM and the 90% effect concentration (IC90) amounted to 23.9 µM.
For `CCN1c2ccccc2N(C)C1(C)c1ccccc1` (stereo unspecified) the same measures were 8.65 µM and 10.5 µM.
On to `CCCOC(=O)c1ccc(-c2ccc(C=O)o2)cc1`, for which the 50% inhibitory concentration (IC50) was 21.1 µM and the IC90 was above 100 µM.
In the same order, the values of `COc1ccccc1C1=NOC(COC(=O)c2ccc([N+](=O)[O-])cc2)C1` (stereo unspecified) are 47.7 µM and above 100 µM.
For `CCCc1cnc(NCCNCC(O)COc2ccc(Cl)c(Cl)c2)nc1` (stereo unspecified), the IC50 was 24.2 µM and the IC90 was found to be 27.7 µM.
For `Cc1ccc2c(c1)c(C1=c3ccccc3=NC1=O)c(O)n2C` the same measures were 2.95 µM and 4.82 µM.
Take `NC(=O)c1cccn1-c1ncc(C(F)(F)F)cc1Cl`: the IC50 is 14.4 µM and the 90% effect concentration (IC90) was 28.1 µM.
For the compound `Cc1cc(C)c2cc(C(=O)Nc3ccc(C)c(F)c3)[nH]c2c1`, the IC50 was 1.32 µM and the 90% effect concentration (IC90) amounted to 1.91 µM.
In the same order, the values of `COC(=O)c1ccc(-c2ncc(-c3cccc4ccccc34)o2)cc1` are 80.3 µM and above 100 µM.
Take `CC(C)(C)NC(=O)COC(=O)c1cc(Br)ccc1Cl`: the IC50 is 24.3 µM and the IC90 was found to be 45.4 µM.
Consider `C/C(CCc1ccc2c(c1)OCO2)=N\NC(=S)NC(C)C`, for which the IC50 is 98.4 µM and the IC90 is above 100 µM.
Regarding `CS(=O)(=O)c1ncc(Cl)c(C(=O)Nc2ccc(OC(F)F)cc2)n1`, the 50% inhibitory concentration (IC50) is 13.6 µM and the 90% effect concentration (IC90) was above 25 µM.
On to `CCCCOCCCn1c(-c2ccco2)nc2nc3ccccc3nc21`, for which the IC50 was 99.9 µM and the 90% effect concentration (IC90) was above 100 µM.
In the same order, the values of `COc1ccccc1NC(=O)CN1CCN(CC(=O)Nc2ccc3c(c2)OCO3)CC1` are 39.2 µM and 60 µM.
Regarding `CCOC(=O)CSc1ncc(OC)c(Sc2ccc(OC)cc2)n1`, the IC50 is 18.1 µM and the IC90 was found to be 54.3 µM.
Take `C=CCN(C(=O)CSc1nc2c(sc3ccccc32)c(=O)n1CCN(CC)CC)c1ccccc1`: the half-maximal inhibitory concentration (IC50) is 30.8 µM and the concentration for an effect of 90% (IC90) was 38.8 µM.
On to `Cc1cc(/C=N\NC(=O)c2cccs2)c(C)n1-c1ccc2ncccc2c1`, for which the half-maximal inhibitory concentration (IC50) was 36.8 µM and the concentration for an effect of 90% (IC90) came out at 60.2 µM.
In the same order, the values of `CSc1ccc(CNC(=O)c2ccc(NC(=O)C3=CSCCO3)cc2)cc1` are 7.07 µM and 25.5 µM.
For `O=C(/C=C/c1ccc(O)c([N+](=O)[O-])c1)c1ccc2ccccc2c1`, the IC50 is 24 µM and the IC90 was above 100 µM.
In the case of `O=C1/C(=C\c2ccncc2)CCc2ccccc21`, the IC50 is 45.9 µM and the IC90 amounted to 49.7 µM.
As to `CCN=c1scc(-c2ccco2)n1/N=C/c1ccc(OC)c(O)c1`, the IC50 was 23.2 µM and the 90% effect concentration (IC90) was found to be 35.1 µM.
On to `CC(C)(C)c1ccc(C(=O)N2CCN(CCNC(=O)C(=O)NCc3ccc(Cl)cc3)CC2)cc1`, for which the IC50 was 24.7 µM and the concentration for an effect of 90% (IC90) amounted to 46.7 µM.

For the origin of these results see PubChem BioAssay AID449764 (Southern Research Specialized Biocontainment Screening …, 2010).
